Consider four compounds from ChEMBL document CHEMBL1201862, “PubChem BioAssay data set” (2004).

Test systems include A498; A549; DU-145; EKVX; HCC 2998; HOP-92; Hs-578T; IGROV-1; MCF7; MOLT-4; NCI-H226; OVCAR-5; RXF 393; SF-268; SK-MEL-28; SK-MEL-5; SNB-19; SNB-75; SW-620; T47D.
What all share (test): NCI anticancer screen, dose series, 48 h

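Exposure lasted 48 hours, with cells grown in 96-well plates and compounds tested at five concentrations. At the GI50, growth is halved.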 Active and inactive are the calls of the source. Cut-off read from the data, not from the text of the source: active = GI50 up to about 1.1 µM and inactive = higher. Where only a bound is given, the exact number is not on record here.

For `C1CSCCSCCSCCSCCS1`, the GI50 with A498, with A549, in the experiment with DU-145, in the experiment with EKVX, in the experiment on HCC 2998 and in the experiment with HOP-92 was > 100 µM (inactive) each time. Moreover, the GI50 in the experiment on Hs-578T, in the experiment on IGROV-1, with MCF7, in the experiment with MOLT-4, in the experiment with NCI-H226 and in the experiment with OVCAR-5 was > 100 µM (inactive) throughout. The GI50 with RXF 393, with SF-268, in the experiment with SK-MEL-28, in the experiment with SK-MEL-5, with SNB-19 and with SNB-75 was > 100 µM (inactive) each time. The GI50 in the experiment on SW-620 and in the experiment with T47D was > 100 µM (inactive) in each case.
Turning to `CO[C@@H]1C[C@H]2[C@@H]3CC[C@H]([C@@H](C)COC(C)=O)[C@@]3(C)CC[C@@H]2[C@@]2(C)CC[C@H]3C[C@]312`, the GI50 in the experiment on A498 is 20 µM (inactive); with A549, 15.9 µM (inactive); in the experiment on DU-145, 14 µM (inactive); in the experiment on EKVX it was 14.5 µM (inactive); with HCC 2998 it was 15.1 µM (inactive); with HOP-92 it was 19.9 µM (inactive). The GI50 with Hs-578T was 18.5 µM (inactive); with IGROV-1, 15.5 µM (inactive); with MCF7 it was 9.48 µM (inactive); with MOLT-4, 15.3 µM (inactive); in the experiment on NCI-H226 it was 17.9 µM (inactive); in the experiment with OVCAR-5, 11.5 µM (inactive). Moreover, the GI50 is 17.7 µM (inactive) in the experiment on RXF 393; 17.9 µM (inactive) in the experiment on SF-268; 17.1 µM (inactive) in the experiment with SK-MEL-28; 3.61 µM (inactive) in the experiment on SK-MEL-5; 16.9 µM (inactive) in the experiment with SNB-19; 17.9 µM (inactive) in the experiment on SNB-75. Besides, the GI50 was 11.8 µM (inactive) in the experiment with SW-620 and 13.2 µM (inactive) in the experiment with T47D.
Take `Nc1nc(Sc2ccc([N+](=O)[O-])c3nonc23)c2nc[nH]c2n1`: the GI50 is 13.7 µM (inactive) in the experiment on A498; 3.69 µM (inactive) in the experiment with A549; 0.705 µM (active) in the experiment on DU-145; 1.85 µM (inactive) in the experiment on EKVX; 1.08 µM (active) with HCC 2998; 2.56 µM (inactive) in the experiment on HOP-92. Moreover, the GI50 in the experiment on Hs-578T was 6.58 µM (inactive); in the experiment with IGROV-1 it was 3.57 µM (inactive); in the experiment with MCF7 it was 0.593 µM (active); in the experiment on MOLT-4 it was 0.301 µM (active); in the experiment on NCI-H226, 1.75 µM (inactive); with OVCAR-5 it was 1.02 µM (active). Further, the GI50 in the experiment with RXF 393 is 1.36 µM (inactive); in the experiment with SF-268, 0.681 µM (active); with SK-MEL-28, 10.5 µM (inactive); with SK-MEL-5 it was 2.15 µM (inactive); with SNB-19, 15.8 µM (inactive); in the experiment on SNB-75, 3.31 µM (inactive). The GI50 with SW-620 was 1.01 µM (active); in the experiment with T47D it was 1.2 µM (inactive).
As for `COc1ccc2cc(CNCCCCCCCCNCc3ccc4cc(OC)ccc4c3)ccc2c1`, the GI50 with A498 is 6.38 µM (inactive); with A549, 13.5 µM (inactive); in the experiment with DU-145, 6.97 µM (inactive); with EKVX, 6.87 µM (inactive); in the experiment with HCC 2998 it was 1.85 µM (inactive); in the experiment on HOP-92, 5.32 µM (inactive). Besides, the GI50 in the experiment with Hs-578T is 8.77 µM (inactive); in the experiment on IGROV-1, 5.21 µM (inactive); in the experiment on MCF7 it was 4.27 µM (inactive); in the experiment with MOLT-4, 2.77 µM (inactive); in the experiment on NCI-H226, 14 µM (inactive); in the experiment on OVCAR-5, 6.9 µM (inactive). In addition, the GI50 is 8.07 µM (inactive) in the experiment with RXF 393; 4.34 µM (inactive) in the experiment on SF-268; 5.78 µM (inactive) in the experiment on SK-MEL-28; 11.7 µM (inactive) with SK-MEL-5; 4.1 µM (inactive) in the experiment on SNB-19; 3.41 µM (inactive) in the experiment with SNB-75. The GI50 is 1.97 µM (inactive) in the experiment on SW-620 and 21.2 µM (inactive) with T47D.
